Data on 24 molecules can be found in patent publication US8859535B2, “Hydroxy substituted isoquinolinone derivatives” (Novartis AG, priority 2011, dated 2014).

As usually defined, the IC50 is the midpoint of a concentration-inhibition curve.

In the test the target is T1, human MDM2 protein (amino acids 2-188) (Homo sapiens, UniProt Q00987).
T1 construct: human MDM2 protein (amino acids 2-188); made in house
T1 sequence (Q00987 2-188): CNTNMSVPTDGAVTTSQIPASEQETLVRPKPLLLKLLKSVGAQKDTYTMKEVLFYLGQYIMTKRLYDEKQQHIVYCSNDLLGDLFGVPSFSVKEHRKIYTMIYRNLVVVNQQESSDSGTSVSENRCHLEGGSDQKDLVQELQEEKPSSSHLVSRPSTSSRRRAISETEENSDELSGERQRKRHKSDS
In words: p53-MDM2 TR-FRET assay, modified (p53-MDM2 Assay 2). Type of test: binding. Particulars: 0.1 nM MDM2, 0.1 nM Europium labeled streptavidin; read-out: IC50 (nM) of p53-Hdm2 inhibition (TR-FRET) Assay 2. The method, then:
Time Resolved Fluorescence Energy Transfer (TR-FRET) Assay
The inhibition of p53-MDM2 and p53-MDM4 interactions is measured by time resolved fluorescence energy transfer (TR-FRET). Fluorescence energy transfer (or Foerster resonance energy transfer) describes an energy transfer between donor and acceptor fluorescent molecules. For this assay, human MDM2 protein (amino acids 2-188) and human MDM4 protein (amino acids 2-185), tagged with a C-terminal biotin moiety, are used in combination with a Europium labeled streptavidin (Perkin Elmer, Inc., Waltham, Mass., USA) serving as the donor fluorophore. The p53 derived, Cy5 labeled peptide Cy5-TFSDLWKLL (p53 aa18-26) is the energy acceptor. Upon excitation of the donor molecule at 340 nm, binding interaction between MDM2 or MDM4 and the p53 peptide induces energy transfer and enhanced response at the acceptor emission wavelength at 665 nm. Disruption of the formation of the p53-MDM2 or p53-MDM4 complex due to an inhibitor molecule binding to the p53 binding site of MDM2 or MDM4 results in increased donor emission at 620 nm. The ratiometric FRET assay readout is calculated from the raw data of the two distinct fluorescence signals measured in time resolved mode (fluorescence 665 nm/fluorescence 620 nm×1000).
After addition of 1.25 nM MDM2-biotinylated or 2.5 nM MDM4-biotinylated (internal preparations), and 0.625 nM Europium labeled streptavidin (Perkin Elmer), the solution is pre-incubated for 15 minutes at room temperature, then 10 nM Cy5-p53 peptide (internal preparation) is added before an incubation at room temperature for 15 minutes prior to reading the plate. For measurement of samples, a Victor II microplate reader (Perkin Elmer) is used with the following settings: Excitation 340 nm, Emission Donor 620 nm and Emission Acceptor 665 nm. IC50 values are calculated by curve fitting using XLfit. If not specified, reagents are purchased from Sigma-Aldrich Chemie GmBH, Buchs, Switzerland.
This assay was used to evaluate compounds displaying inhibition of p53-MDM2 interaction and p53-MDM4 interaction at IC50s of 0.005 to 50 μM (p53-MDM2 Assay 1 and p53-MDM4 Assay 1, respectively). For selected compounds displaying IC50s between […] on MDM2, a slightly modified assay is used with the following adaptations: 0.1 nM MDM2, 0.1 nM Europium labeled streptavidin and Tecan genios Pro is used as a microplate reader for the fluorescence measurements (p53-MDM2 Assay 2).
(Time-resolved FRET reads energy transfer from a long-lived donor to a nearby acceptor.)
For the molecule `COc1cc2c(cc1OC(C)C)[C@H](c1ccc(Cl)cc1)N(c1ccc([C@](C)(O)C3CCN(C(=O)COC(C)=O)CC3)cc1)C(=O)C2` (single isomer, unassigned) [Example 129], the IC50 amounted to 99.8 nM.
Take `COc1cc2c(cc1OC(C)C)[C@H](c1ccc(Cl)cc1)N(c1ccc([C@@](C)(O)C3CCN(CCO)CC3)cc1)C(=O)C2` (single isomer, unassigned) [Example 131]: the IC50 amounted to 1.42 nM.
For `COc1cc2c(cc1OC(C)C)[C@H](c1ccc(Cl)cc1)N(c1ccc([C@](C)(O)C3CCN(CCO)CC3)cc1)C(=O)C2` (single isomer, unassigned) [Example 132], the IC50 was 25.3 nM.
On to `COc1cc2c(cc1OC(C)C)[C@H](c1ccc(Cl)cc1)N(c1ccc([C@@](C)(O)C3CCN(C(=O)CO)CC3)cc1)C(=O)C2` (single isomer, unassigned) [Example 133], for which the IC50 stood at 1.62 nM.
As for `COc1cc2c(cc1OC(C)C)[C@H](c1ccc(Cl)cc1)N(c1ccc([C@](C)(O)C3CCN(C(=O)CO)CC3)cc1)C(=O)C2` (single isomer, unassigned) [Example 134], the figure is 141 nM; as for `COc1cc2c(cc1OC(C)C)[C@H](c1ccc(Cl)cc1)N(c1ccc([C@@](C)(O)C34CCC(CC3)C4)cc1)C(=O)C2` (single isomer, unassigned) [Example 139], 2.72 nM.
On to `COc1cc2c(cc1OC(C)C)[C@H](c1ccc(Cl)cc1)N(c1ccc([C@](C)(O)C34CCC(CC3)C4)cc1)C(=O)C2` (single isomer, unassigned) [Example 140], for which the IC50 amounted to 305 nM.
In the case of `[2H]C([2H])([2H])Oc1cc2c(cc1OC(C)C)[C@H](c1ccc(Cl)cc1)N(c1ccc([C@](C)(O)C3CCS(=O)(=O)CC3)cc1)C(=O)C2` (single isomer, unassigned) [Example 152] it was 152 nM; in that of `[2H]C([2H])([2H])Oc1cc2c(cc1OC(C)C)[C@H](c1ccc(Cl)cc1)N(c1ccc([C@@](C)(O)C3CCS(=O)(=O)CC3)cc1)C(=O)C2` (single isomer, unassigned) [Example 153], 3.16 nM.
As for `[2H]C([2H])([2H])Oc1cc2c(cc1OC(C)C)[C@H](c1ccc(Cl)cc1)N(c1ccc([C@](C)(O)C3CCN(C=O)CC3)cc1)C(=O)C2` (single isomer, unassigned) [Example 154], the figure is 78.7 nM; as for `[2H]C([2H])([2H])Oc1cc2c(cc1OC(C)C)[C@H](c1ccc(Cl)cc1)N(c1ccc([C@@](C)(O)C3CCN(C=O)CC3)cc1)C(=O)C2` (single isomer, unassigned) [Example 155], 1.23 nM; as for `COc1cc2c(cc1OC(C)C)[C@H](c1ccc(Cl)cc1)N(c1ccc([C@@](C)(O)C3CC4CCC(C3)O4)cc1)C(=O)C2` (single isomer, unassigned) [Example 159], 0.894 nM.
As for `COc1cc2c(cc1OC(C)C)[C@H](c1ccc(Cl)cc1)N(c1ccc([C@](C)(O)C3CC4CCC(C3)O4)cc1)C(=O)C2` (single isomer, unassigned) [Example 160], the figure is 41.9 nM.
Regarding `COc1cc2c(cc1OC(C)C)[C@H](c1ccc(Cl)cc1)N(c1ccc([C@@](C)(O)C3CC(C)(C)OC(C)(C)C3)cc1)C(=O)C2` (single isomer, unassigned) [Example 163], the IC50 is 1.26 nM.
Regarding `COc1cc2c(cc1OC(C)C)[C@H](c1ccc(Cl)cc1)N(c1ccc([C@](C)(O)C3CC(C)(C)OC(C)(C)C3)cc1)C(=O)C2` (single isomer, unassigned) [Example 164], the IC50 turned out to be 509 nM.
As for `COc1cc2c(cc1OC(C)C)[C@H](c1ccc(Cl)cc1)N(c1ccc(C(C)(O)C3CN(C4COC4)C3)cc1)C(=O)C2` (stereo partly drawn) [Example 103, (S)-1-(4-Chloro-phenyl)-2-{4-[1-hydroxy-1-(1-oxetan-3-yl-azetidin-3-yl)-ethyl]-phenyl}-7-isopropoxy-6-methoxy-1,4-dihydro-2H-isoquinolin-3-one], the figure is 9.18 nM; as for `CNC(=O)N1C2CCCC1CC(C(C)(O)c1ccc(N3C(=O)Cc4cc(OC)c(OC(C)C)cc4[C@@H]3c3ccc(Cl)cc3)cc1)C2` (stereo partly drawn) [Example 119, 3-(1-{4-[(S)-1-(4-Chloro-phenyl)-7-isopropoxy-6-methoxy-3-oxo-3,4-dihydro-1H-isoquinolin-2-yl]-phenyl}-1-hydroxy-ethyl)-9-aza-bicyclo[3.3.1]nonane-9-carboxylic acid methylamide], 1.47 nM; as for `COc1cc2c(cc1OC(C)C)[C@H](c1ccc(Cl)cc1)N(c1ccc(C(C)(O)C3CC4CCCC(C3)N4C3COC3)cc1)C(=O)C2` (stereo partly drawn) [Example 120, (S)-1-(4-Chloro-phenyl)-2-{4-[1-hydroxy-1-(9-oxetan-3-yl-9-aza-bicyclo[3.3.1]non-3-yl)-ethyl]-phenyl}-7-isopropoxy-6-methoxy-1,4-dihydro-2H-isoquinolin-3-one], 4.67 nM.
As for `COc1cc2c(cc1OC(C)C)[C@H](c1ccc(Cl)cc1)N(c1ccc(C(C)(O)C3CC4CCCC(C3)N4C(=O)COC(C)=O)cc1)C(=O)C2` (stereo partly drawn) [Example 121, Acetic acid 2-[3-(1-{4-[(S)-1-(4-chloro-phenyl)-7-isopropoxy-6-methoxy-3-oxo-3,4-dihydro-1H-isoquinolin-2-yl]-phenyl}-1-hydroxy-ethyl)-9-aza-bicyclo[3.3.1]non-9-yl]-2-oxo-ethyl ester], the figure is 3.44 nM.
As for `CCN1C2CCCC1CC(C(C)(O)c1ccc(N3C(=O)Cc4cc(OC)c(OC(C)C)cc4[C@@H]3c3ccc(Cl)cc3)cc1)C2` (stereo partly drawn) [Example 122, (S)-1-(4-Chloro-phenyl)-2-{4-[1-(9-ethyl-9-aza-bicyclo[3.3.1]non-3-yl)-1-hydroxy-ethyl]-phenyl}-7-isopropoxy-6-methoxy-1,4-dihydro-2H-isoquinolin-3-one], the figure is 2.31 nM; as for `COc1cc2c(cc1OC(C)C)[C@H](c1ccc(Cl)cc1)N(c1ccc(C(C)(O)C3CC4CCCC(C3)N4C(=O)CO)cc1)C(=O)C2` (stereo partly drawn) [Example 123, (S)-1-(4-Chloro-phenyl)-2-(4-{1-hydroxy-1-[9-(2-hydroxy-acetyl)-9-aza-bicyclo[3.3.1]non-3-yl]-ethyl}-phenyl)-7-isopropoxy-6-methoxy-1,4-dihydro-2H-isoquinolin-3-one], 4.2 nM; as for `COc1cc2c(cc1OC(C)C)[C@H](c1ccc(Cl)cc1)N(c1ccc(C(C)(O)C3CCN(C[C@@H](O)CO)CC3)cc1)C(=O)C2` (stereo partly drawn) [Example 130, (S)-1-(4-Chloro-phenyl)-2-(4-{1-[1-((R)-2,3-dihydroxy-propyl)-piperidin-4-yl]-1-hydroxy-ethyl}-phenyl)-7-isopropoxy-6-methoxy-1,4-dihydro-2H-isoquinolin-3-one], 2.08 nM.
Consider `[2H]C([2H])([2H])Oc1cc2c(cc1OC(C)C)[C@H](c1ccc(Cl)cc1)N(c1ccc(C(C)(O)C3CCN(C=O)CC3)cc1)C(=O)C2` (stereo partly drawn) [Example 151, 4-(1-{4-[(S)-1-(4-Chloro-phenyl)-7-isopropoxy-6-d^3-methoxy-3-oxo-3,4-dihydro-1H-isoquinolin-2-yl]-phenyl}-1-hydroxy-ethyl)-piperidine-1-carbaldehyde], for which the IC50 worked out at 2.09 nM.
As for `COc1cc2c(cc1OC(C)C)[C@H](c1ccc(Cl)cc1)N(c1ccc(C(C)(O)C3C4CNCC3COC4)cc1)C(=O)C2` (stereo partly drawn) [Example 156, (S)-1-(4-Chloro-phenyl)-2-{4-[1-hydroxy-1-(3-oxa-7-aza-bicyclo[3.3.1]non-9-yl)-ethyl]-phenyl}-7-isopropoxy-6-methoxy-1,4-dihydro-2H-isoquinolin-3-one], the figure is 12.6 nM.
